Laboratory results: patent US7538123B2, “Indole derivative having piperidine ring” (Eisai R & D Management Co., Ltd., priority 2004, dated 2009)

What was measured:
5-HT1A receptor = target: T1, 5-HT1A receptor (Sus scrofa, UniProt A0A4X1UTF5); assay: Test regarding affinity for serotonin 1A receptor ([3H]MPPF binding inhibition); parameters: species or system swine
T1 construct: from tissue; host or cells: swine hippocampus, membrane fraction
T1 sequence (A0A4X1UTF5 1-422): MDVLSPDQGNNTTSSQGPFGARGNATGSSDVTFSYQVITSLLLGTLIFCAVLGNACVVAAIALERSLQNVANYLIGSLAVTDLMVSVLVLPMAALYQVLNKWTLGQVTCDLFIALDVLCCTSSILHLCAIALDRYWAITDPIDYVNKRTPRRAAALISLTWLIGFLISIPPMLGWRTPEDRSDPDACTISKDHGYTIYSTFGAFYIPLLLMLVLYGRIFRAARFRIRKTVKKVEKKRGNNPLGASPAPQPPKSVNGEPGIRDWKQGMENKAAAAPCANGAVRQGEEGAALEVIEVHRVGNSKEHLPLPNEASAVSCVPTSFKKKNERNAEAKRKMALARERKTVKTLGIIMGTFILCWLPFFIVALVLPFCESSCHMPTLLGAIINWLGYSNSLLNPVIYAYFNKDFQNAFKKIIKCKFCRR
From the text: (1) The affinity of a test substance for a 5-HT1A receptor was examined by an inhibition experiment, in which the inhibitory effect of the test substance against the binding of [^3H]-4-(2′-methoxy)phenyl-1-(2′-(N-2″-pyridinyl)-p-fluorobenzamido)ethyl-piperazine (MPPF) that selectively binds to the 5-HT1A receptor in a swine hippocampal membrane fraction was examined. The 5-HT1A receptor that is a G-protein binding receptor becomes a G-protein binding state with addition of MgCl2. In contrast, it becomes a G-protein non-binding state with addition of guanylylimido diphosphate (Gpp(NH)p). […] Thus, both the affinity of a test substance to the receptor that was in a state of not binding to the G-protein and the affinity of the test substance to the receptor that was in a state of binding to the G-protein were obtained. […]
A mixture (0.5 ml) used for incubation comprised an appropriate amount of the membrane fraction, a test substance with a desired concentration, MgCl2 (final concentration: 10 mM) or Gpp(NH)p (final concentration: 1 mm ), [^3H]MPPF (final concentration: 0.5 nM), dimethyl sulfoxide (final concentration: 1% (v/v)), and a 50 mM Tris-Hcl buffer (pH 7.4). […] Thereafter, radioactivity binding to the receptor was measured with a liquid scintillation counter. Non-specific binding was defined as binding detected in the presence of 10 μM WAY-100,635.

serotonin 1A receptor = target: T2, serotonin 1A receptor (Mus musculus, UniProt Q64264); assay: Antagonistic effect on serotonin 1A receptor agonist-induced hypothermia in mouse; type: in vivo; conditions: for ED50: sc, 15 minutes before 8-hydroxy-dipropylaminotetralin 0.5 mg/kg sc, inhibition of hypothermia, CD-1 (ICR) male mice, read-out: ED50
T2 construct: into the rectum of CD-1 (ICR) male mice (25-45 g); from tissue; host or cells: living CD-1 (ICR) male mice (whole animal)
T2 sequence (Q64264 1-421): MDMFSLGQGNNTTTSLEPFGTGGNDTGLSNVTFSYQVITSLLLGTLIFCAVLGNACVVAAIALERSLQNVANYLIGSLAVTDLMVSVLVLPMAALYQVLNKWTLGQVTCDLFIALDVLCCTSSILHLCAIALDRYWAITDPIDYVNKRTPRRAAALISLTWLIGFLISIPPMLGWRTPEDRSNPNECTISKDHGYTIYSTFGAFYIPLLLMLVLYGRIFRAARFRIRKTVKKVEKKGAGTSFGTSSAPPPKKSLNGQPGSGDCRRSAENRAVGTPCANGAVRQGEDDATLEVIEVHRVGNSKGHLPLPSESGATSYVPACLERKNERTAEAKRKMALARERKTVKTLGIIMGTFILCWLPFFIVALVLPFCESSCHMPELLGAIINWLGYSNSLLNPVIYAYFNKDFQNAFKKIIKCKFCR
Experimental: (1) A thermistor probe was inserted at a depth of approximately 2 cm into the rectum of CD-1 (ICR) male mice (25-45 g), so as to measure the body temperature thereof. Body temperature is decreased by subcutaneous administration of serotonin 1A receptor agonist (8-hydroxy-dipropylaminotetralin) 0.5 mg/kg. Since a serotonin 1A antagonist inhibits such action, the antagonistic effect of a test substance to a serotonin 1A receptor was evaluated using the inhibitory effect of the hypothermia as an index. A test substance was administered 15 minutes before the administration of the serotonin 1A agonist. A serotonin 1A partial agonist alone decreases the body temperature, depending on the degree of the agonistic action thereof. In addition, it has a weak antagonistic effect on 8-hydroxy-dipropylaminotetralin-induced hypothermia. (2) Results

SMILES | ED50 (serotonin 1A receptor) | also measured
COc1cc2c(cc1CCN1CCC(n3ccc4ccc(C(N)=O)cc43)CC1)N(C)C(=O)OC2 [Compound 39, 1-{1-[2-(6-methoxy-methyl-oxo-1,4-dihydro-2H-benz[d][1,3]oxazin-7-yl)ethyl]piperidin-4-yl}-1H-indole-6-carboxamide] | – | L/H ratio (5-HT1A receptor; low affinity IC50 divided by high affinity IC50, 1 or smaller = no intrinsic activity, 2 or greater = intrinsic activity): 0.7
CNC(=O)c1ccc2ccn(C3CCN(CCc4cc5c(cc4OC)CCC(=O)N5C)CC3)c2c1 [Compound 58, 1-{1-[2-(6-methoxy-1-methyl-2-oxo-1,2,3,4-tetrahydroquinolin-7-yl)ethyl]piperidin-4-yl}-N-methyl-1H-indole-6-carboxamide] | 0.53 mg/kg | –
CCN1C(=O)CCc2cc(OC)c(CCN3CCC(n4ccc5ccc(C(N)=O)cc54)CC3)cc21 [Compound 59, 1-{1-[2-(1-ethyl-6-methoxy-2-oxo-1,2,3,4-tetrahydroquinolin-7-yl)ethyl]piperidin-4-yl}-1H-indole-6-carboxamide] | 0.3 mg/kg | –

Continued, in another order:

ED50 (serotonin 1A receptor) | SMILES | also measured
0.84 mg/kg | COc1ccc2c(c1CCN1CCC(n3ccc4ccc(C(N)=O)cc43)CC1)CCCN2C(C)=O [Compound 54, 1-{1-[2-(1-acetyl-6-methoxy-1,2,3,4-tetrahydroquinolin-5-yl)ethyl]piperidin-4-yl}-1H-indole-6-carboxamide] | –
0.1 mg/kg | COc1cc2c(cc1CCN1CCC(n3ccc4ccc(C(N)=O)cc43)CC1)N(C)C(=O)CC2 [Compound 57, 1-{1-[2-(6-methoxy-1-methyl-2-oxo-1,2,3,4-tetrahydroquinolin-7-yl)ethyl]piperdin-4-yl}-1H-indole-6-carboxamide] | –
0.52 mg/kg | CCn1c(=O)oc2cc(OC)c(CCN3CCC(n4ccc5ccc(C(N)=O)cc54)CC3)cc21 [Compound 60, 1-{1-[2-(3-ethyl-6-methoxy-2-oxo-2,3-dihydrobenzoxazol-5-yl)ethyl]piperidin-4-yl}-1H-indole-6-carboxamide] | –
> 1 mg/kg | NC(=O)c1ccc2ccn(C3CCN(CCc4ccc(F)cc4)CC3)c2c1 [Compound A, reference compound] | affinity for 5-HT1A / receptor binding action (in words) (5-HT1A receptor): has affinity; antagonistic effect against the 5-HT1A receptor / pharmacological effect (in words) (serotonin 1A receptor; in vivo): weak
